Data on 6 molecules can be found in PMC7915666, “Antitrypanosomal and Antileishmanial Activity of Chalcones and Flavanones from Polygonum salicifolium” (Pathogens, 2021).

What is called EC50 is the concentration that produces a half-maximal response.

One series has as its system T. b. brucei B48. As to the kind of experiment: Alamar Blue (resazurin) assay, multi-drug resistant T. b. brucei B48. As to conditions: Trypanosoma brucei, read-out: T. b. brucei EC50, B48. The format is cell-based. The procedure:
(§1) The four compounds were tested for activity against the following three kinetoplastid pathogens: Trypanosoma brucei brucei, Trypanosoma congolense, and Leishmania mexicana. For the two Trypanosoma species, the compounds were tested in parallel against strains that were resistant to the most common trypanocides. T. b. brucei B48 is highly resistant to the entire classes of diamidines and melaminophenyl arsenicals, and T. congolense DA-Res was rendered resistant to diminazene aceturate by means of in vitro exposure to the drug. […] For the drug-resistant trypanosome strains, highly significant resistance to diamidines was confirmed, but there was no cross-resistance with the chalcones and flavanones. […] While this dataset of two chalcones is self-evidently insufficient for a structure–activity relationship (SAR) analysis, it is clear that the position of the hydroxy and methoxy groups on ring A (Figure 1) influenced the trypanocidal activity without increasing the toxicity.
(In general: Resazurin is reduced to fluorescent resorufin, in cell work by metabolically active cells.)

In a further series the test system is T. congolense DA-Res. It is filed as cell-based, Trypanosoma congolense. As to conditions: for EC50: Trypanosoma congolense, read-out: T. congolense EC50, DA-Res. The method, then:
as §1

Another series deals with T. congolense IL3000-WT. The series can be described thus: Alamar Blue (resazurin) assay, T. congolense IL3000 wild-type bloodstream forms.
The nature of series [1]: Drug toxicity assay in human foreskin fibroblast (HFF) cells, resazurin. The format is cell-based. As to conditions: HFF (human foreskin fibroblast) cells; human foreskin fibroblasts; highest concentration tested 100 µg/mL; mean ± SEM, n>=3.
The subject of the next series is HFF cells. The description is as above. It is filed as cell-based. The note with it: EC50 (HFF)/EC50(427-WT).
Another series concerns T. b. brucei 427-WT. As to the kind of experiment: Alamar Blue (resazurin) assay, T. b. brucei Lister 427 wild-type bloodstream forms. As to conditions: for EC50: Trypanosoma brucei; for activity against Trypanosoma species (in words): Trypanosoma species (T. b. brucei and T. congolense).
The mark [2] stands for this setting: 72 h, read-out: T. b. brucei EC50, 427-WT, bloodstream forms, 48 h + 24 h resazurin, mean ± SEM, n>=3.

≈ marks a conversion by molar mass, not a printed value. Read-outs that look alike come from different tables or passages of the source.

`COc1cc(O)c(C(=O)/C=C/c2ccccc2)c(OC)c1` [Compound 1, 2′,4′-dimethoxy-6′-hydroxychalcone]: the EC50 with T. b. brucei B48 is 1.8 µM; in the series with T. congolense DA-Res, 8.8 ± 0.28 µM; in the series with T. congolense IL3000-WT (Trypanosoma congolense, read-out: EC50 against T. congolense), 2.5 µg/mL (≈ 8.79 µM); with T. b. brucei 427-WT (setting [2]), about 2 µM; with T. b. brucei 427-WT (read-out: EC50 against Trypanosoma brucei brucei, standard resazurin-based assay) it was 0.58 µg/mL. In addition, in the series on T. congolense IL3000-WT, the “activity against T. congolense (in words)” value is “moderate activity”. Moreover, the 50% effective concentration (EC50) at 54 h in series [1] was over 350 µM. Moreover, in the series with HFF cells, the “SI (Tbb), selectivity index = EC50(HFF)/EC50(Tbb)” value is listed as over 172.
On to `COc1cc(O)c(OC)c(O)c1C(=O)/C=C/c1ccccc1` [Compound 2, 2′,5′-dimethoxy-4′,6′-dihydroxychalcone], for which the EC50 with T. b. brucei B48 stood at 13.9 ± 0.6 µM; in the series with T. congolense DA-Res, 28.6 ± 1.4 µM; in the series with T. b. brucei 427-WT (setting [2]), 14.6 ± 0.8 µM. The “fold less activity than compound 1 against T. congolense” value in the series on T. congolense IL3000-WT (relative to compound 1) is about 4 fold. For the same molecule, the EC50 at 54 h in series [1] is over 330 µM. The “SI (Tbb), selectivity index = EC50(HFF)/EC50(Tbb)” value in the series on HFF cells is listed as over 22.8. The “fold less activity than compound 1 against T. b. brucei” value with T. b. brucei 427-WT (relative to compound 1) is “about 8 fold”.
On to `COc1cc(OC)c2c(c1)OC(c1ccccc1)CC2=O` (stereo not drawn) [Compound 3, 5,7-dimethoxyflavanone], for which the results for the concentration giving a half-maximal response (EC50) in the series with T. b. brucei B48, with T. congolense DA-Res and with T. b. brucei 427-WT (setting [2]) were 30.3 ± 1.1 µM, 106 ± 15 µM and 30.1 ± 0.95 µM, respectively. In series [1], this molecule returned a half-maximal effective concentration (EC50) at 54 h of over 350 µM. Also, the “SI (Tbb), selectivity index = EC50(HFF)/EC50(Tbb)” value in the series with HFF cells is recorded as over 11.7. The “activity against Trypanosoma species (in words)” value in the series on T. b. brucei 427-WT is on record as “moderate activity”.
On to `COc1cc(O)c(OC)c2c1C(=O)CC(c1ccccc1)O2` (stereo not drawn) [Compound 4, 5,8-dimethoxy-7-hydroxyflavanone], for which the EC50 in the series with T. b. brucei B48 worked out at 51.9 ± 1.6 µM; with T. congolense DA-Res, 48 ± 6.2 µM; with T. b. brucei 427-WT (setting [2]), 55.3 ± 1.6 µM. Also, the EC50 at 54 h in series [1] was over 330 µM. In addition, the “SI (Tbb), selectivity index = EC50(HFF)/EC50(Tbb)” value with HFF cells is listed as over 6.0. Further, in the series with T. b. brucei 427-WT, the “activity against Trypanosoma species (in words)” value is “moderate activity”.
Consider `N=C(N)c1ccc(/N=N/Nc2ccc(C(=N)N)cc2)cc1` [Diminazene, diminazene aceturate, reference compound], for which the EC50 in the series with T. b. brucei B48 is 2.4 ± 0.36 µM; in the series on T. congolense DA-Res, 1.43 ± 0.03 µM; with T. b. brucei 427-WT (setting [2]), 0.15 ± 0.01 µM. Moreover, the “resistance of clone 6C3 versus IL3000” value in the series with T. congolense DA-Res (line adapted in vitro to diminazene aceturate) was ~ 10 fold.
`N=C(N)c1ccc(OCCCCCOc2ccc(C(=N)N)cc2)cc1` [Pentamidine, reference compound]: the 50% effective concentration (EC50) in the series with T. b. brucei B48 was 0.72 ± 0.03 µM; with T. b. brucei 427-WT (setting [2]), 0.0034 ± 0.0004 µM.
